Patent US20260337177A1, “TEAD CORE INHIBITORS FOR CANCER THERAPEUTICS” (University of Florida Research Foundation, Incorporated, priority 2023, published 2026)

How the values were obtained:
[1] = system: AML12 cells; test: AML12 normal liver cell growth inhibition (CCK8); type: cell-based
[2] = target: TEAD2-YBD (Homo sapiens, UniProt Q15562); test: Intact protein mass spectrometry, covalent modification of TEAD2-YBD; type: binding
From the text: To substantiate the covalent interaction between Compound 22 and TEAD2-YBD, intact mass spectrometry was employed to monitor the protein's mass change upon binding with the compound.
Human TEAD2-YBD (217-447) (TEAD2_HUMAN, UniProtKB Q15562) was expressed and purified as previously described.^79 To eliminate endogenous palmitoylation, Cys380Ser mutant (TEAD2-C380S) was generated and purified using the same protocol. [00392]hTEAD2 was expressed, purified, and deacylated as reported.^52 Briefly, the yap-binding domain (YBD) of […] was cloned in pET28a vector with the N terminal 6x His tag. The recombinant protein was induced at 16 ° C using 0.2 mM isopropyl bD-1-thiogalactopyranoside (IPTG) for 10 h for overexpression in Escherichia coli strain BL2 (DE3) CodonPlus competent cells (Invitrogen). Then cells were harvested, followed by lysis and the supernatant was loaded onto the HisTrap FF column (GE Healthcare). The hTEAD4-YBD was eluted with elution buffer (50 mM Hepes 8.0, 300 mM NaCl, 10% Glycerol, 1 mM TCEP, 125 mM imidazole). To eliminate the endogenous fatty acid, the protein was incubated with 0.2 mM hydroxylamine for 2 h and further purified through gel filtration chromatography in the final buffer (25 mM Hepes pH 8.0, 100 mM NaCl, 1 mM TCEP, and 5% glycerol). Collected fractions were concentrated to 5 mg/mL and flash frozen for further use. […]

[3] = system: YAP-TEAD; test: Co-immunoprecipitation of endogenous YAP and TEAD in NCI-H226 cells; type: cell-based
Procedure: To assess if compound 22 inhibits the interaction between YAP/TAZ and TEAD proteins within the cell, compound 22 was administered to NF2-deficient NCI-H226 cells for 24 hours. Subsequently, the endogenous TEAD protein was isolated through immunoprecipitation using a pan-TEAD antibody and examined the immunocomplexes for the presence of YAP/TAZ proteins using anti-YAP/TAZ antibodies (as depicted in FIG. 18).
[…] protein lysate extracted using lysis buffer were incubated with 5 μL pan-TEAD antibody (CST #13295, 33 g/ml) at 4 ° C overnight with rotation, and then incubated with 15 μL Protein G magnetic beads (Fisher #88847) at R.T. for 1 hour with rotation. After binding, beads were washed three times with lysis buffer and one time with ddH2O. IP samples were eluted using 1× gel loading buffer supplied with 20 mM DTT and boiled at 96 ° C for 10 min. […] protein lysate were used for input, and 3% IP flow-thru were used for binding efficiency control. *0 indicated DMSO control. For the detection process, primary antibodies used were: YAP/TAZ rabbit monoclonal antibody (mAb) at a dilution of 1:2000, CST #8418S; Pan-TEAD rabbit mAb at 1:2000, CST #13295S; and 3-actin mouse mAb at 1:8000, Sigma #A5316. Secondary antibodies applied in 1× TBST were: Rabbit IgG-HRP at 1:10000 and Mouse IgG-HRP also at 1:10000.

[4] = system: CTGF; test: CTGF mRNA expression by RT-qPCR in Huh7 cells; type: cell-based, human; conditions: dose-dependent
Procedure: (§1) Huh7 and HepG2 liver cancer cells were seeded at 1×10^6 cells/dish and allowed to adhere overnight. The cells were then treated with indicated doses of compounds in medium for 24 hours. The cells were then harvested, and total RNA was purified using the Aurum total RNA mini kit (Bio-Rad #732-6820) according to the manufacturer's instructions. Complementary DNA was synthesized from 500 ng total RNA template by iScript reverse transcription kit (Bio-Rad #1725037) according to the manufacturer's instructions. Real-time PCR reactions utilized 60 ng cDNA and PrimePCR primers from Bio-Rad (Unique Assay ID: human GAPDH-qHsaCEP0041396, human CTGF-qHsaCEP0024255, human CYR61-qHsaCEP0024230) designed for SYBR Green gene expression analysis (Bio-Rad #1726270). All reactions were carried out in triplicate using Quant Studio 3 PCR system (Applied Biosystems). Relative gene expression level was quantified via ΔΔCt method by using GAPDH as an endogenous reference.

[5] = system: CTGF; test: CTGF mRNA expression by RT-qPCR in HepG2 cells; type: cell-based, human; conditions: dose-dependent
Procedure: as §1

[6] = system: CYR61; test: CYR61 mRNA expression by RT-qPCR in HepG2 cells; type: cell-based, human; conditions: dose-dependent
Procedure: as §1

[7] = system: HepG2 cells; test: Apoptosis by calcein AM and ethidium homodimer-1 staining, HepG2; type: cell-based, human

Chain of TEAD2-YBD (Q15562 217-447): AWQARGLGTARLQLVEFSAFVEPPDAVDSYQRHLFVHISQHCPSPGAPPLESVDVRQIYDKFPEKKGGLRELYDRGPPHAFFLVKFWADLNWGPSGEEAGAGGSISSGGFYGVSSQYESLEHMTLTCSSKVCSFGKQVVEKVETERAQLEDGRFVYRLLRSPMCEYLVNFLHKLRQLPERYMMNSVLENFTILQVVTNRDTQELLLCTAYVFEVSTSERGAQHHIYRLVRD

Structure (SMILES): O=C(CCl)c1c[nH]c2cc(Cl)c(OCc3cccc(C(F)(F)F)c3)cc12 [Compound 22, 2-chloro-1-(6-chloro-5-((3-(trifluoromethyl)benzyl)oxy)-1H-indol-3-yl)ethan-1-one]
- Toxicity towards normal liver cell line AML12 [1]: least toxic
- Inhibitory rate, AML12 (inhibitory percentage of AML12 cell growth) ([1]; 10 μM, 3 days): 22.1%
- Labeling of TEAD2-YBD ([2]; 15 hours at room temperature): completely labeled with a single molecule
- Intact mass shift of TEAD2-YBD ([2]; excess compound, covalent complex, room temperature): 365.5581 Da
- Co-IP of YAP with pan-TEAD antibody ([3]; 1 μM, 24 hours): significantly diminished
- Interaction between YAP and TEAD ([3]; "2.5 M", 24-hour treatment): almost entirely inhibited
- CTGF mRNA expression, Huh7 [4]: suppressed
- CTGF mRNA expression, Huh7 ([4]; listed as compound 22): significantly inhibited
- CTGF mRNA expression, HepG2 [5]: significantly inhibited
- CYR61 mRNA expression, HepG2 [6]: significantly inhibited
- HepG2 cell apoptosis [7]: promotes HepG2 cell apoptosis
